Reference: patent publication US20180353501A1 (Arvinas, Inc., priority 2017, published 2018)

Molecular target: T1, FLAG-p38δ (Homo sapiens, UniProt O15264)
T1 construct: expressed in transfected cells; host or cells: HeLa cells, transient transfection with Lipofectamine 2000
T1 sequence (O15264 1-365): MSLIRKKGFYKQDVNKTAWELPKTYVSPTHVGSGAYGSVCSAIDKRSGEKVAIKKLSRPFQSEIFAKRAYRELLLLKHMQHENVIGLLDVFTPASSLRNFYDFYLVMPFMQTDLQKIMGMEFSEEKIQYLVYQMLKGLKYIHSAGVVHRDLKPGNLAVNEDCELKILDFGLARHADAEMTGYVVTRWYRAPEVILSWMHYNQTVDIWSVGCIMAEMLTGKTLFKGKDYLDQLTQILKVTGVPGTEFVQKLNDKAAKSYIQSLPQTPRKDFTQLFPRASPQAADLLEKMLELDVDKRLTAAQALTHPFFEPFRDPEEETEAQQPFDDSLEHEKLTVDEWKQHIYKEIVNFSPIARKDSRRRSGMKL
Assay: Ubiquitination assay, HeLa cells co-transfected with HA-Ub and FLAG-p38δ
Type: cell-based
Conditions: 1 μM
Text: FIGS. 15A, 15B, and 15C. Differential p38δ:PROTAC:VHL ternary complex affinities result in distinct cellular ubiquitination outcomes. (A) Both exemplary compound 50 and 46 pull-down p38δ in vitro, however compound 46 maintains ternary complex at lower concentrations. As in FIG. 14A, GST-tagged VBC was used as a bait to trap recombinant p38δ in the presence of vehicle (DMSO) or the indicated concentrations of compound 50 or 46. The rightmost lane represents a 1:25 dilution of initial input protein used in each pull-down. […] Samples were assessed by western blot and CUL2 and α-tubulin serve as positive and negative GST-VBC immunoprecipitation controls, respectively. […] FLAGimmunoprecipitated lysates were separated by SDS-PAGE and assessed via western blots detecting HA (Ub). […]
HeLa cells (2×10^6) were seeded into 10 cm dishes and allowed to adhere overnight. […] Lysates were spun down at 14,000×g at 4° C. for 20 minutes and protein content was measured by Pierce BCA Protein Assay (ThermoFisher Scientific). […] Immunoprecipitated protein was eluted off of the beads by heating at 95° C. for 5 minutes and the supernatant was run on an SDS-PAGE gel and evaluated for the presence of immunoprecipitated FLAG-tagged proteins (anti-FLAG M2, Sigma #F1804), as well as ubiquitinated FLAG-tagged proteins (anti-HA-tag (6E2), CST #2367). […]

## COc1cc2c(Oc3ccc(NC(=O)C4(C(=O)Nc5ccc(F)cc5)CC4)cc3F)ccnc2cc1OCCOCCOCCOc1cc(-c2scnc2C)ccc1CNC(=O)[C@@H]1C[C@@H](O)CN1C(=O)[C@H](C(C)C)N1Cc2ccccc2C1=O [compound 46]
  ubiquitination of FLAG-immunoprecipitated p38δ: levels of ubiquitination of FLAG-immunoprecipitated p38δ greater than control cells

## COc1cc2c(Oc3ccc(NC(=O)C4(C(=O)Nc5ccc(F)cc5)CC4)cc3F)ccnc2cc1OCCCCOCCCCOCC(=O)N[C@H](C(=O)N1C[C@H](O)C[C@H]1C(=O)NCc1ccc(-c2scnc2C)cc1)C(C)(C)C [compound 50, N-(3-fluoro-4-((7-(4-(4-(2-(((S)-1-((2S,4R)-4-hydroxy-2-((4-(4-methylthiazol-5-yl)benzyl)carbamoyl)pyrrolidin-1-yl)-3,3-dimethyl-1-oxobutan-2-yl)amino)-2-oxoethoxy)butoxy)buto-xy)-6-methoxyquinolin-4-yl)oxy)phenyl)-N-(4-fluorophenyl)cyclopropane-1,1-dicarboxa-mide]
  ubiquitination of FLAG-immunoprecipitated p38δ: far less abundant
